Source: article PMC5491906, “Cellular uptake and anti-tumor activity of gemcitabine conjugated with new amphiphilic cell penetrating peptides” (EXCLI Journal, 2017)
Where a SMILES comes first, the peptide text is derived from it. Where no end group is shown, it is not given here. The star is where a group is joined. X1 = Nc1ccn([C@@H]2O[C@H](COC(=O)CCC(=O)*)[C@@H](O)C2(F)F)c(=O)n1

Columns and labels:
A549 cells [1] = assay: Antitumor activity of free gemcitabine and Gem-CPP conjugates by MTT test; conditions: for cell viability / cytotoxicity in comparison to the free drug: 72 h, 15 and 25 µM where stated; for cell viability: 72 h incubation, 10 % FBS
Procedure: (§1) A549 lung carcinoma cell line was obtained from the Pasteur Institute (Iran). Cells were maintained in RPMI 1640 medium supplemented with 10 % FBS, 100 units/ml penicillin, and 100 μg/ml streptomycin and grown at 37 °C in a 5 % CO2 humidified atmosphere.
(§2) A549 cells were seeded into 96-well plates at a density of 1.5 × 10^4 cells/well and pre-incubated for 24 h. The next day, different concentrations of peptides were added to the culture medium. Cells were incubated at 37 °C for 72 h. The medium was removed and the wells were washed with PBS. The MTT assay was performed by introducing 50 μl of 2 mg/ml MTT to each well for 4 h. The culture media aspirated and then resulting formazan crystals were dissolved in DMSO and the absorbance of individual wells was obtained at 570 nm. Untreated cells were defined as 100 % viable.
The antitumor activity of free gemcitabine and its conjugates with CPPs (Gem-CPP) was investigated using MTT test after incubation for 72 h. The activity of drug-peptide conjugates i.e. Gem-R5W3R4, Gem-[RW]6, Gem-[RW]5, Gem-[RW]4 and Gem-[WR]3, was evaluated and compared with that of the free drug (Figure 6(Fig. 6)).
Figure 6 Toxicity of Gem-R5W3R4 (A), Gem-[RW]6 (B), Gem-[RW5] (C), Gem-[RW]4 (D), Gem-[RW]3 (E) and Gem to A549 cells. The cells were incubated for 3 days in 10 % FBS with or without peptides and analyzed for proliferation by MTT assay.

A549 cells [2] = assay: Flow cytometry of cellular uptake of FITC-labeled peptides; format: cell-based; conditions: FITC-labeled peptide, 1.5 h at 37 °C, trypsin treatment to remove surface-bound peptide, FACSCalibur
Procedure: A549 cells were seeded with RMPI 1640 medium in 6-well plates (3×10^5 cells/well) 24 h prior to the experiment. After 24 h, the medium was removed and washed with PBS. Then FITC-labeled peptide was added to the cells. The plates were incubated for 1.5 h at 37 °C. After that, the medium containing the peptide was removed. The cells were washed three times with PBS and detached with 0.25 % trypsin/EDTA (0.53 mM) for 5 min. To each well, 2 ml of the medium was added and centrifuged for 4 min. Cells were washed twice with PBS and finally were re-suspended in flow cytometry buffer and analyzed by FACSCalibur (Becton Dickinson, San Jose, CA, USA).
Flow cytometry was used to determine the relative amounts of internalized peptide after 1.5 h incubation at 37 °C. After the incubation, cells were treated with trypsin to remove the cell surface-bound peptides. […] The percentage of cell fluorescence was increased with increasing peptides concentration. This effect was nearly linear for the tested concentrations. There was an increase in fluorescence intensity of cells treated with peptides of higher amino acid content.
Figure 5 Cellular uptake of FITC-labeled peptides in live A549 cells after incubation. The uptake was measured as the relative fraction of positive cells (%) from flow cytometry analysis of all living cells positive for the fluorophore.

A549 cells [3] = assay: Fluorescent microscopy of uptake and intracellular localization of FITC-labeled peptides; format: cell-based; conditions: FITC-labeled peptide, 25 µM, 1.5 h at 37 °C, live A549 cells, fluorescence read-out
Procedure: The cellular uptake of the FITC-labeled peptide was examined in A549 cell line. A549 cells were seeded with RPMI 1640 medium on coverslips in 6-well plates and allowed to adhere overnight. Then the medium was removed and washed with PBS. The cells were treated with FITC-labeled peptide for 1.5 h at 37 °C. After incubation, the media containing the compound were removed and the cells were washed with PBS three times. Coverslips were placed on a microscope slide (Olympus IX81 fluorescence microscope, Olympus Optical Co., Ltd., Tokyo, Japan).
The uptake and intracellular localization of FITC-labeled peptides were examined by fluorescent microscopy. […] The uptake of all peptides was examined at the concentration of 25 µM.
Figure 4 Fluorescence microscopy, visualization of FITC-labeled, R5W3R4 (A, B), [RW]6 (C, D), [RW]5 (E, F), [RW]4 (G, H), and [RW]3 (I, J) in A459 cells. The top photos show fluorescence microscopy and the bottom bright field of A459 cells. Live cells were treated with 25 µm of peptides for 1.5 h at 37 °C. Control cells were incubated in RPMI medium without the peptides.

A549 cells [4] = assay: Cytotoxicity of blank CPPs by MTT assay; conditions: 72 h peptide exposure
Procedure: as §1, §2

Molecule: N=C(N)NCCC[C@H](NC(=O)[C@H](CCCNC(=N)N)NC(=O)[C@H](CCCNC(=N)N)NC(=O)[C@H](CCCNC(=N)N)NC(=O)[C@H](Cc1c[nH]c2ccccc12)NC(=O)[C@H](Cc1c[nH]c2ccccc12)NC(=O)[C@H](Cc1c[nH]c2ccccc12)NC(=O)[C@H](CCCNC(=N)N)NC(=O)[C@H](CCCNC(=N)N)NC(=O)[C@H](CCCNC(=N)N)NC(=O)[C@H](CCCNC(=N)N)NC(=O)[C@H](CCCNC(=N)N)NC(=O)CCC(=O)OC[C@H]1O[C@@H](n2ccc(N)nc2=O)C(F)(F)[C@@H]1O)C(N)=O [Gem-R5W3R4] (X1-RRRRRWWWRRRR-NH2)
- cell viability / cytotoxicity in comparison to the free drug (A549 cells [1]): decreased cell viability

Molecule: RRRRRWWWRRRR-NH2 [R5W3R4]
- intracellular fluorescence, relative fraction of positive cells (flow cytometry) (A549 cells [2]): maximum intracellular fluorescence
- intracellular distribution (fluorescent microscopy) (A549 cells [3]): homogeneous staining throughout the intracellular space
- cell toxicity value (A549 cells [4]; 25 µM): 9%
- cell death (A549 cells [4]; 50 µM): 28%

Molecule: N=C(N)NCCC[C@H](NC(=O)CCC(=O)OC[C@H]1O[C@@H](n2ccc(N)nc2=O)C(F)(F)[C@@H]1O)C(=O)N[C@@H](Cc1c[nH]c2ccccc12)C(=O)N[C@@H](CCCNC(=N)N)C(=O)N[C@@H](Cc1c[nH]c2ccccc12)C(=O)N[C@@H](CCCNC(=N)N)C(=O)N[C@@H](Cc1c[nH]c2ccccc12)C(=O)N[C@@H](CCCNC(=N)N)C(=O)N[C@@H](Cc1c[nH]c2ccccc12)C(=O)N[C@@H](CCCNC(=N)N)C(=O)N[C@@H](Cc1c[nH]c2ccccc12)C(=O)N[C@@H](CCCNC(=N)N)C(=O)N[C@@H](Cc1c[nH]c2ccccc12)C(N)=O [Gem-[RW]6]
- cell viability / cytotoxicity in comparison to the free drug (A549 cells [1]): decreased cell viability

Molecule: Nc1ccn([C@@H]2O[C@H](CO)[C@@H](O)C2(F)F)c(=O)n1 [Free drug, Gemcitabine]
- cell viability (A549 cells [1]; 15 µM): 20%
- cell viability (A549 cells [1]; 25 µM): 20%
